Experimental findings from US20050244810A1, “Taste signaling in gastrointestinal cells” (priority 2003, published 2005) are described below.

The subject of this assay is G proteins on NCI-H716 cells. The experiment in a line: Radiometric [35S]GTPγS binding assay with NCI-H716 cell membranes. The assay is classed as biochemical, human. Particulars: for GTPγS binding to G proteins as compared to non-specific binding (NSB): NCI-H716 cell membrane fractions, 10 μl 50 mM compound in 50 μl assay, 2 hours at 25° C.; for effect of added transducin on the level of GTPγS binding to G proteins: transducin 4 μg/50 μl assay added together with compound (FIG. 4C, 5C). The method, then:
[^35S] GTPγS binding assays were performed in triplicate in 96-well plates [see Northup et al., J. Biol. Chem., 257, 11416-23 (1982)]. To each well the following was added and allowed to incubate for 2 hours at 25° C.: […] of a 2× buffer (5 mM HEPES pH 7.8, 1 μM GTPγS, 4 μCi/ml [^35S]GTPγS); 10 μl 50 mM dextromethorphan or doxylamine; and 15 μl ([…]) NCI-H7-16 cell membranes or supernatant (supernatant from NCI-H716 cells spun at 900 g (S1), pellets from NCI-H716 cells spun at 900 g (P1), and pellets from NCI-H716 cells spun at 100,000 g (P2)). Where indicated, transducin was also added (4 μg/50 μl assay). The total assay volume per well was 50 μl.
To separate the free [^35S] GTPγS from the [^35S] GTPγS that bound to G proteins, 40 μl of the mixture was filtered using a pre-wet Millipore Multiscreen Filtration opaque 96-well plate (0.45 μm mixed cellulose acetate, #MHABN4550). The samples were washed three times with 0.2 ml ice-cold wash buffer (0.5 M Tris-HCl, 0.04 M-magnesium chloride 6H20, 1 M sodium chloride) using a Whatman Polyfiltronics manifold under pressure from a Gast vacuum pump (#DOA-P104 AA) set to 10 PSI. The rubber manifold of the Multiscreen plates was removed and the filters were allowed to dry under warm lights and a fan for 15 minutes.
The plates were then fitted with adapter plates (Packard #6005178) and 30 μl Microscint PS (#6013631) was added to each well. Next, the plates were heat sealed with Packard TopSeal-S sealing film (#6005161) using a Packard Micromate 496 heat sealer. Radioactivity bound to the filter plates was counted in a Packard Top Count NXT scintillation counter.

The structures appear in SMILES notation.

With `COc1ccc2c(c1)[C@]13CCCC[C@@H]1[C@H](C2)N(C)CC3` [dextromethorphan], the “GTPγS binding to G proteins as compared to non-specific binding (NSB)” value is listed as “increase this binding” and the “effect of added transducin on the level of GTPγS binding to G proteins” value is reported as “little effect”. The “amount of compound needed to saturate NCI-H716 cell membranes in GTPγS binding” value (2 μg of NCI-H716 cell membranes (FIG. 6B)) turned out to be 10 mM. In addition, for the setting “NCI-H716 cell fractions, no transducin added (FIG. 4A)”, the “GTPγS binding to G proteins in the absence of transducin” value is listed as “increased the binding to G proteins”.

Turning to `CN(C)CCOC(C)(c1ccccc1)c1ccccn1` (stereo not drawn) [doxylamine], the “GTPγS binding to G proteins as compared to non-specific binding (NSB)” value is on record as “increase this binding” and the “effect of added transducin on the level of GTPγS binding to G proteins” value is reported as “significantly increased the binding to G proteins”.
